For data set [1] the following is noted: literature value; cited from earlier work.
Data set [2] deals with HEK293 cells. The experiment in a line: FMN content of HEK293 cells after overexpression. It is filed as cell-based. Conditions: overexpression in HEK293 cells. The source says: (§1) Feedback pathways involving enzymes such as riboflavin kinase (EC 2.7.1.26) and FAD (flavin adenine dinucleotide) diphosphatase (EC 3.6.1.18) probably regulate intracellular FMN to titrate endogenous flavoproteins and miniSOG [25]. Riboflavin kinase phosphorylates riboflavin into FMN, while FAD diphosphatase catalyzes the production of FMN from FAD.

Data set [3] has as its system HEK293 cells. As to the kind of experiment: growth rate of HEK293 cells overexpressing the protein, no light. It is filed as cell-based. The following applies: for Cell number: HEK293 cells; for toxicity in the absence of light: overexpression in cells, no illumination.
Text: as §1
DNA encoding miniSOG with codons optimized for mammals was synthesized by overlap extension PCR [48]. MiniSOG fusions were cloned into pcDNA3.1 vector. HEK293 and HeLa cells were transfected with miniSOG or chimera cDNAs using Fugene, then imaged 24-48 h later. Cultured cortical neurons were transfected by Amaxa electroporation (Lonza AG, Germany) and imaged 1-2 wk later.

Data set [4] can be described thus: 1O2 quantum yield measured with ADPA as 1O2 sensor, FMN as standard. It is filed as physicochemical. The following applies: for 1O2 (singlet oxygen generation) quantum yield: ADPA sensor in PBS, illuminated at 480/30 nm, FMN standard. The method, then: (§2) FIG. 3. (A) Absorbance spectrum of miniSOG0.2 determined between 400 nm and 500 nm (B) Normalized absorbance (left) and emission (right) spectra of miniSOG0.2. The fluorescence quantum yield of miniSOG0.2 was determined to be 0.30. (C) ADPA degradation by miniSOG0.2. ADPA was mixed with miniSOG0.2 in PBS and illuminated at 480/30 nm. ADPA emission spectra taken after indicated illumination times. (D) Degradation of ADPA by illumination of miniSOG0.2 (▴) or free FMN (♦). Flavin mononucleotide (FMN) was used as the standard for the quantum yield measurement. The data represents one typical measurement. The averaged absorbance intensity of FMN and miniSOG0.2 in this measurement is 0.064 and 0.070 respectively in arbitrary units. Singlet-oxygen-generation quantum yield of miniSOG0.2 was determined to be 0.47±0.05 (from three independent measurements).
(§3) To increase the brightness of the C426G mutant, we also performed saturation mutagenesis of other residues surrounding the chromophore binding site. […] The ^1O2 quantum yield of miniSOG0.2 (0.47±0.05) was measured using anthracene-9,10-dipropionic acid (ADPA) as a ^1O2 sensor (FIG. 1E). Free FMN was used as the standard for the measurement of ^1O2 generation (quantum yield 0.51).

A short description of data set [5]: fluorescence quantum yield. The class given is physicochemical. The method, then:
as §2
(§4) […] was synthesized by overlap extension PCR [48]. Genetic libraries were constructed by saturation and random mutagenesis and DNA shuffling. Mutants were fused to IFP1.4 by overlap extension PCR and cloned into a modified pBAD vector containing the heme oxygenase-1 gene from cyanobacteria. Libraries were expressed in E. coli strain TOP10 and screened by imaging the agar plates with colonies in the IFP channel before and after blue light illumination. Protein purification and spectroscopic characterization experiments were done as described.

Data set [6] is described as follows: absorbance spectrum, extinction coefficients. The class given is physicochemical. The method, then:
as §3, §4

The target in a further data set is flavodoxin. The following applies: literature value for a flavodoxin [23]; read-out: dissociation constant; cited from earlier work.
The target in data set [7] is T1, Arabidopsis thaliana phototropin 2 (AtPhot2) LOV2 domain (residues 387-492) variant AtminiSOG0.2 (miniSOG0.2, miniSOG), 1387M/N390S/S394T/S409G/C426G/F470L, SEQ ID NO: 2 (Arabidopsis thaliana, UniProt P93025, C426G/F470L/N390S/S394T/S409G).
T1 construct: can be engineered into a small (106-residue) SOG; made in house
The experiment in a line: Equilibrium dialysis of miniSOG (FMN dissociation constant). The class given is binding. The source says:
Mass spectrometry confirmed that the flavin cofactor is FMN. Equilibrium dialysis reported a dissociation constant of 170±8 pM (Table 2), similar to values for some flavoproteins (e.g., 260±60 pM for a flavodoxin [23]) and consistent with the crystal structures of LOV domains, which show FMN deeply buried inside the protein core.

Regarding `CC1=NC(=Cc2ccc(O)cc2)C(=O)N1C` [naked GFP chromophore], the 1O2 quantum yield in data set [1] was 0.004.

For the compound `Cc1cc2nc3c(=O)[nH]c(=O)nc-3n(C[C@H](O)[C@H](O)[C@H](O)COP(=O)(O)O)c2cc1C` [Free FMN, flavin mononucleotide], in data set [1], the 1O2 quantum yield is listed as 0.51.

Consider “AtminiSOG0.2: 106-residue mutant of Arabidopsis thaliana phototropin 2 residues 387-492, 1387M/N390S/S394T/S409G/C426G/F470L, SEQ ID NO:2, binds FMN”, for which the “increase of FMN content” value in the data set with HEK293 cells [2] is listed as roughly 3 fold. Also, the Cell number is reported as 200 10^3 in the data set on HEK293 cells [3] (Day 0, transfection efficiency >90%); 390 10^3 in the data set with HEK293 cells [3] (Day 1, transfection efficiency >90%); 940 10^3 in the data set with HEK293 cells [3] (Day 2, transfection efficiency >90%). For the same compound, the “toxicity in the absence of light” value in the data set with HEK293 cells [3] is on record as “no obvious toxicity”; in the data set on HEK293 cells [3] (listed as AtminiSOG), “without any obvious toxicity”. Further, the “1O2 quantum efficiency relative to ReAsH on a tetracysteine motif” value in data set [4] was “about 20 times”. For the same compound, the entries for the “1O2 (singlet oxygen generation) quantum yield” value in data set [4] (listed as AtminiSOG) and in data set [4] (listed as miniSOG0.2) were 0.47 and 0.47±0.05, respectively. Further, the fluorescence quantum yield in data set [5] (listed as AtminiSOG) worked out at 0.30; in data set [5] (listed as miniSOG), 0.37; in data set [5] (listed as miniSOG0.2) it was 0.30. For the same compound, the extinction coefficient entry in data set [6] (at 448 nm) was “(16.7±0.7)×10^3 M^−1cm^−1”; in data set [6] (at 448 nm, listed as AtminiSOG), 16,700 M^−1cm^−1; in data set [6] (at 473 nm), “(13.6±0.5)×10^3 M^−1cm^−1”; in data set [6] (at 473 nm, listed as AtminiSOG) it was 13,600 M^−1cm^−1.

In the case of `Cc1cc2nc3c(=O)[nH]c(=O)nc-3n(C[C@H](O)[C@H](O)[C@H](O)COP(=O)(O)O)c2cc1C` [FMN, flavin mononucleotide], the Kd was 0.26 ± 0.06 nM at flavodoxin; 0.124 ± 0.0057 nM in data set [7] ([apo] * [FMN]/[holo], equilibrium dialysis, dialysis time 24 hrs); 0.174 ± 0.0053 nM in data set [7] ([apo] * [FMN]/[holo], equilibrium dialysis, dialysis time 48 hrs); 0.17 ± 0.0084 nM in data set [7] ([apo] * [FMN]/[holo], equilibrium dialysis, dialysis time 72 hrs); roughly 0.1 nM in data set [7] (dissociation constant (binds endogenous FMN very tightly), summary statement); 0.17 ± 0.008 nM in data set [7] (dissociation constant, equilibrium dialysis, FMN cofactor).

Consider `O=c1ccc2nc3ccc(O)c([As]4SCCS4)c3oc-2c1[As]1SCCS1` [ReAsH], for which, in data set [1], the 1O2 quantum yield is 0.024.

The record behind these values is patent US9279769B2, “Proteins that efficiently generate singlet oxygen” (The Regents of the University of California, priority 2010, dated 2016).
